Test system: 695427-040-R-J1-PDC complex spheroid viability
Test: Anticancer human tumor 695427-040-R-J1-PDC patient-derived colon adenocarcinoma cell line growth inhibition [POLQ]
Conditions: for IC50: curve of first compound; for viability, T/C: stronger effect = lower value
Procedure, shortened: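 Growth inhibition in 3D: complex spheroids (tumor PDC, HUVEC, MSC) treated with POLQ inhibitor combinations; where Cmax unknown, highest tested concentration 10 microM, except SN-38 at 1 microM.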

[1] = second compound 0.0316 µM, first compound 0.0316 µM
[2] = second compound 0.0316 µM, first compound 0.1 µM
[3] = second compound 0.0316 µM, first compound 0.316 µM
[4] = second compound 0.0316 µM, first compound 1 µM
[5] = second compound 0.0316 µM, first compound 3.16 µM
[6] = second compound 0.0316 µM, first compound 10 µM
[7] = second compound 0.1 µM, first compound 0.0316 µM
[8] = second compound 0.1 µM, first compound 0.1 µM
[9] = second compound 0.1 µM, first compound 0.316 µM
[10] = second compound 0.1 µM, first compound 1 µM
[11] = second compound 0.1 µM, first compound 3.16 µM
[12] = second compound 0.1 µM, first compound 10 µM
[13] = second compound 0.316 µM, first compound 0.0316 µM
[14] = second compound 0.316 µM, first compound 0.1 µM
[15] = second compound 0.316 µM, first compound 0.316 µM
[16] = second compound 0.316 µM, first compound 1 µM
[17] = second compound 0.316 µM, first compound 3.16 µM
[18] = second compound 0.316 µM, first compound 10 µM
[19] = second compound 1 µM, first compound 0.0316 µM
[20] = second compound 1 µM, first compound 0.1 µM
[21] = second compound 1 µM, first compound 0.316 µM
[22] = second compound 1 µM, first compound 1 µM
[23] = second compound 1 µM, first compound 3.16 µM
[24] = second compound 1 µM, first compound 10 µM
[25] = second compound 3.16 µM, first compound 0.0316 µM
[26] = second compound 3.16 µM, first compound 0.1 µM
[27] = second compound 3.16 µM, first compound 0.316 µM
[28] = second compound 3.16 µM, first compound 1 µM
[29] = second compound 3.16 µM, first compound 3.16 µM
[30] = second compound 3.16 µM, first compound 10 µM
[31] = second compound 10 µM, first compound 0.0316 µM
[32] = second compound 10 µM, first compound 0.1 µM
[33] = second compound 10 µM, first compound 0.316 µM
[34] = second compound 10 µM, first compound 1 µM
[35] = second compound 10 µM, first compound 3.16 µM
[36] = second compound 10 µM, first compound 10 µM
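Further: spheroids exposed to compounds for seven days.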
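Wherever viability, T/C is given: 100% = DMSO vehicle control viability.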

In the case of `COc1cc(C2c3cc4c(cc3C(OC3OC5COC(C)OC5C(O)C3O)C3COC(=O)C23)OCO4)cc(OC)c1O` (centres undefined) + Nc1ccc(C#CCN(C(=O)Cc2ncc(C(F)(F)F)cc2C(F)(F)F)c2ccc(F)cc2)nn1, the IC50 (second compound 0.0316 µM) is reported as > 10 µM, the IC50 (second compound 0.1 µM) is reported as > 10 µM and the IC50 (second compound 0.316 µM) is reported as > 10 µM. For the same compound, the IC50 (second compound 1 µM) was > 10 µM, the IC50 (second compound 3.16 µM) was > 10 µM and the IC50 (second compound 10 µM) was > 10 µM. It also gave a viability, T/C [1] of 104%, a viability, T/C [2] of 97.9% and a viability, T/C [3] of 98%. It also gave a viability, T/C [4] of 97.8%, a viability, T/C [5] of 95.2% and a viability, T/C [6] of 87.4%. It also gave a viability, T/C [7] of 99%, a viability, T/C [8] of 97.2% and a viability, T/C [9] of 100%. The viability, T/C [10] was 104%, the viability, T/C [11] was 102% and the viability, T/C [12] was 89.4%. The viability, T/C [13] was 98.4%, the viability, T/C [14] was 90.5% and the viability, T/C [15] was 98.3%. It also gave a viability, T/C [16] of 97.6%, a viability, T/C [17] of 113% and a viability, T/C [18] of 91.3%. It also gave a viability, T/C [19] of 101%, a viability, T/C [20] of 97.5% and a viability, T/C [21] of 105%. The viability, T/C [22] was 97.5%, the viability, T/C [23] was 106% and the viability, T/C [24] was 73.5%. It also gave a viability, T/C [25] of 96.2%, a viability, T/C [26] of 94.3% and a viability, T/C [27] of 98.5%. It also gave a viability, T/C [28] of 99.2%, a viability, T/C [29] of 101% and a viability, T/C [30] of 81.5%. It also gave a viability, T/C [31] of 92.7%, a viability, T/C [32] of 89% and a viability, T/C [33] of 88.8%. It also gave a viability, T/C [34] of 87.8%, a viability, T/C [35] of 85.9% and a viability, T/C [36] of 84.9%.

`COc1cccc2c1C(=O)c1c(O)c3c(c(O)c1C2=O)CC(O)(C(=O)CO)CC3OC1CC(N)C(O)C(C)O1` (centres undefined) + Nc1ccc(C#CCN(C(=O)Cc2ncc(C(F)(F)F)cc2C(F)(F)F)c2ccc(F)cc2)nn1 was tested, and the IC50 (second compound 0.0316 µM) was > 10 µM, the IC50 (second compound 0.1 µM) was > 10 µM and the IC50 (second compound 0.316 µM) was > 10 µM. For the same compound, the IC50 (second compound 1 µM) was > 10 µM, the IC50 (second compound 3.16 µM) was > 10 µM and the IC50 (second compound 10 µM) was 3.38 µM. It also gave a viability, T/C [1] of 101%, a viability, T/C [2] of 90.9% and a viability, T/C [3] of 97.3%. The viability, T/C [4] was 78.2%, the viability, T/C [5] was 79.6% and the viability, T/C [6] was 71%. It also gave a viability, T/C [7] of 113%, a viability, T/C [8] of 95% and a viability, T/C [9] of 98.9%. The viability, T/C [10] was 80%, the viability, T/C [11] was 84.5% and the viability, T/C [12] was 64.6%. It also gave a viability, T/C [13] of 99.6%, a viability, T/C [14] of 99.8% and a viability, T/C [15] of 94.4%. The viability, T/C [16] was 83.7%, the viability, T/C [17] was 81.5% and the viability, T/C [18] was 68.3%. It also gave a viability, T/C [19] of 106%, a viability, T/C [20] of 89.5% and a viability, T/C [21] of 95.7%. The viability, T/C [22] was 81.8%, the viability, T/C [23] was 79.6% and the viability, T/C [24] was 58.6%. It also gave a viability, T/C [25] of 96.2%, a viability, T/C [26] of 92% and a viability, T/C [27] of 90.9%. It also gave a viability, T/C [28] of 77.8%, a viability, T/C [29] of 76.9% and a viability, T/C [30] of 51.6%. It also gave a viability, T/C [31] of 95.8%, a viability, T/C [32] of 84.3% and a viability, T/C [33] of 86.6%. The viability, T/C [34] was 68.7%, the viability, T/C [35] was 50.8% and the viability, T/C [36] was 35.3%.

Reference: PubChem BioAssay AID1963840 (Molecular Pharmacology Branch, DTP, NCI, 2024)
